Results taken from patent US20050203187A1, “Formulations useful for the treatment of varicella zoster virus infections and methods for the use thereof” (priority 1998, published 2005).
≈ marks a conversion by molar mass, not a printed value. Entries after “also recorded” stand apart in the source; their conditions may differ. Read-outs that look alike come from different tables or passages of the source.

What was measured:
herpes labialis (HSV-1) = conditions: 10% suspended in aqueous system with non-ionic surfactant and carrier; cited from earlier work
[1] = test system: simian immunodeficiency virus (SIV); conditions: 12% cream, intravaginal application before exposure, six monkeys tested; cited from earlier work
herpes and other viruses = conditions: cited from earlier work
Varicella Zoster Virus [2] = assay: Varicella zoster virus replication in cultures of human foreskin fibroblast cells; assay type: cell-based; conditions: for EC50: Human alphaherpesvirus 3, read-out: EC50 effective concentration required to inhibit viral replication by 50%; for EC50 / EC90: VZV in HFF cells; for EC90: Human alphaherpesvirus 3, read-out: EC90 effective concentration required to inhibit viral replication by 90%; for replication of varicella zoster virus in human cell cultures: statement in words
Protocol: (§1) Human foreskin fibroblast (HFF) cells obtained from newborns were prepared and suspended in minimum essential medium (MEM) and supplemented with 10% fetal bovine serum (FBS). […] Drug concentrations were diluted six times from 100 μg/ml down to 0.03 μg/ml in MEM/FBS solution. A selective index of 10 is considered significant.

[3] = Cytotoxicity in human foreskin fibroblast cells; assay type: cell-based
Protocol: Human foreskin fibroblast (HFF) cells obtained from newborns were prepared and suspended in minimum essential medium (MEM) and supplemented with 10% fetal bovine serum (FBS). Freshly processed cells were incubated for 24 hours at 37° C. in well tissue culture plates in a CO2 incubator (E. R. Kern, J. Infect. Dis., 128:290 (1973)). Assays for cytotoxicity and varicella zoster virus replication were carried out in these culture wells following reported procedures (see, for example, R. J. Ryback and E. R. Kern et al, Antimicrobial Agents and Chemotherapy, 44:1506 (2000); Y. L. Qiu et al, J. Med. Chem., 41: 10 (1998); and Y. L. Qiu et al, J. Med. Chem., 41: 5257 (1998)). Drug concentrations were diluted six times from 100 μg/ml down to 0.03 μg/ml in MEM/FBS solution. A selective index of 10 is considered significant.

varicella zoster virus [4] = assay: Shingles episode in a person; conditions: oral 400 mg 2×/day
Varicella zoster virus [5] = assay: Varicella zoster virus replication in cultures of human foreskin fibroblast cells; assay type: cell-based; conditions: human; VZV in HFF cells; read-out: SI selective index of CC50/EC50
Protocol: as §1

herpes simplex virus-1 = conditions: rabbit kidney cell cultures; cited from earlier work
[6] = ibuprofen 5%, ketoprofen 3%, lactic acid 5%, testosterone 1% in jojoba alcohol; malic acid 0.8%, citric acid 0.5% lotion; Viracol A Plus one drop
Protocol: Testosterone is a primary male hormone produced in the testes with effects on muscles, bones and sexual function. Testosterone replacement therapy for men with a deficiency, sometimes referred to as hypoganadism, is currently available in topical patches. […] This transdermal delivery technology can also be applied to corresponding estrogenic steroids such as estradiol for women.
(§2) The oil was tested on several persons for relief of minor muscle and joint pains.
(§3) The oil was tested topically on several persons for relief of minor muscle and joint pains.
Malic Acid also known as hydroxysuccinic acid, occurs naturally in apples and is sometimes referred to as apple acid. It is used as a general purpose acidulent in food products.
For the next 8 days […] spread 1-2 drops twice each day on the 2.5 inch diameter outbreak of small blisters on […] arm, and 4-6 drops twice each day on the blisters at […] waist.

[7] = Topical relief of muscle and joint pain in persons; assay type: in vivo, human; conditions: ibuprofen 5%, ketoprofen 3% (2-5%) in jojoba alcohol with 1% alpha-d-tocopherol, several drops
Protocol: Some persons using these medications experience gastrointestinal side effects.
as §2, §3

In the case of `CCCCCCCCCCCCCCCCCCCCCCO` [n-docosanol, n-Docosanol], the “mean healing time of lesions” value (herpes labialis (HSV-1)) is given as “shortened” and the “monkeys in which transmission was prevented” value [1] is given as “five”.
For `O=C(O)CC(O)(CC(=O)O)C(=O)O` [Citric Acid], the “viral replication inhibition activity in cell cultures” value (herpes and other viruses) is listed as “viral replication inhibition activity”.
In the case of `CC(=O)C(=O)O` [Pyruvic acid, Pyruvic Acid], the “viral replication inhibition activity in cell cultures” value (herpes and other viruses) is listed as “viral replication inhibition activity”.
`Nc1nc2c(ncn2COCCO)c(=O)[nH]1` [Acyclovir, reference compound] showed an EC50 (Varicella Zoster Virus [2]) of 0.04 µg/mL (≈ 0.178 µM), an EC90 (Varicella Zoster Virus [2]) of 0.09 µg/mL (≈ 0.4 µM) and a CC50 ([3]; stationary HFF cells) greater than 100 µg/mL. The side effects (varicella zoster virus [4]) was “diarrhea and headache” and the change in shingles (varicella zoster virus [4]; after several days) was “no change”.
For `O=C(O)/C=C/C(=O)O` [Fumaric acid, trans 2-butenedioic acid], the EC50 (Varicella Zoster Virus [2]) was 0.15 µg/mL (≈ 1.29 µM), the EC90 (Varicella Zoster Virus [2]) was 0.6 µg/mL (≈ 5.17 µM) and the “replication of varicella zoster virus in human cell cultures” value (Varicella Zoster Virus [2]) was “inhibit replication”. The selectivity ratio (Varicella zoster virus [5]) was greater than 666, the CC50 [3] was greater than 100 µg/mL and the “viral replication inhibition activity in cell cultures” value (herpes and other viruses) was “viral replication inhibition”. For the same molecule, the “herpes simplex virus-1 replication” value (herpes simplex virus-1) was “inhibitors”.
In the case of `CC(O)C(=O)O` (stereo not drawn) [Lactic Acid], the “viral replication inhibition activity in cell cultures” value (herpes and other viruses) is given as “viral replication inhibition activity”.
In the case of `O=C(O)CC(O)C(=O)O` (stereo not drawn) [Malic Acid, hydroxysuccinic acid], the “viral replication inhibition activity in cell cultures” value (herpes and other viruses) is given as “viral replication inhibition activity”.
In the case of `C[C@]12CC[C@H]3[C@@H](CCC4=CC(=O)CC[C@@]43C)[C@@H]1CC[C@@H]2O` [testosterone, Testosterone], the “absorption into human skin, residue, irritation” value [6] is reported as “leaves no residue”.
In the case of `CC(C)Cc1ccc(C(C)C(=O)O)cc1` (stereo not drawn) [Ibuprofen, alpha-methyl-4(2-methylpropyl)benzeneacetic acid], the “pain relief on topical application” value [7] is reported as “successfully relieved pain; also recorded: relieving pain”.
In the case of `O=C(O)CO` [Glycolic Acid], the “viral replication inhibition activity in cell cultures” value (herpes and other viruses) is listed as “viral replication inhibition activity”.
In the case of `O=C(O)CC(=O)O` [Malonic acid, propanedioic acid], the EC50 (Varicella Zoster Virus [2]) is reported as less than 0.03 µg/mL, the EC90 (Varicella Zoster Virus [2]) is reported as less than 0.03 µg/mL and the “replication of varicella zoster virus in human cell cultures” value (Varicella Zoster Virus [2]) is reported as “inhibit replication”. The selectivity ratio (Varicella zoster virus [5]) was greater than 3330, the CC50 [3] was greater than 100 µg/mL and the “herpes simplex virus-1 replication” value (herpes simplex virus-1) was “inhibitors”.
In the case of `CC(C(=O)O)c1cccc(C(=O)c2ccccc2)c1` (stereo not drawn) [Ketoprofen, 3-benzoyl-alpha-methylbenzeneacetic acid], the “pain relief on topical application” value [7] is reported as “relieving pain” and the “pain relief on topical application” value ([7]; listed as ketoprofen) is reported as “successfully relieved pain”.
For `O=C(O)CCC(=O)O` [Succinic acid, Succinic Acid], the “viral replication inhibition activity in cell cultures” value (herpes and other viruses) is listed as “viral replication inhibition activity”.
